{"source": "patent US10189809B2", "about": "“SGC stimulators” (Ironwood Pharmaceuticals, Inc., priority 2010, dated 2019)", "key": {"[1]": {"target": "T1, Human soluble guanylate cyclase enzyme (hsGC) (Homo sapiens (Human), UniProt Q02108+Q02153)", "T1 sequence (Q02153 whole entry)": "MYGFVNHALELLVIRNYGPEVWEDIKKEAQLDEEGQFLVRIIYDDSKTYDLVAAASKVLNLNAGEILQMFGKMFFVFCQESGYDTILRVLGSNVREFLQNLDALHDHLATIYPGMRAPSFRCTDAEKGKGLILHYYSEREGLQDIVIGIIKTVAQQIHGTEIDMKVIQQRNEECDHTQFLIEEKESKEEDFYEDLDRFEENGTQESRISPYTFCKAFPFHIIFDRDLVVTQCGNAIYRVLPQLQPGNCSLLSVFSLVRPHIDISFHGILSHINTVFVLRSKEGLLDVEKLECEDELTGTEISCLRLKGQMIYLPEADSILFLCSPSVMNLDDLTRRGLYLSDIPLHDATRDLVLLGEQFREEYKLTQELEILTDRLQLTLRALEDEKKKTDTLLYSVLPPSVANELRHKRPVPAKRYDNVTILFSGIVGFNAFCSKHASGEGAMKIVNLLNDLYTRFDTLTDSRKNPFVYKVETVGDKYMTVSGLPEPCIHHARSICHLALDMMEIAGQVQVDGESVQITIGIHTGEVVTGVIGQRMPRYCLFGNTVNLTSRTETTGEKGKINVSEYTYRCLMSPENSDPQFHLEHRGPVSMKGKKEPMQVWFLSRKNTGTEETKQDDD", "T1 sequence (Q02108 whole entry)": "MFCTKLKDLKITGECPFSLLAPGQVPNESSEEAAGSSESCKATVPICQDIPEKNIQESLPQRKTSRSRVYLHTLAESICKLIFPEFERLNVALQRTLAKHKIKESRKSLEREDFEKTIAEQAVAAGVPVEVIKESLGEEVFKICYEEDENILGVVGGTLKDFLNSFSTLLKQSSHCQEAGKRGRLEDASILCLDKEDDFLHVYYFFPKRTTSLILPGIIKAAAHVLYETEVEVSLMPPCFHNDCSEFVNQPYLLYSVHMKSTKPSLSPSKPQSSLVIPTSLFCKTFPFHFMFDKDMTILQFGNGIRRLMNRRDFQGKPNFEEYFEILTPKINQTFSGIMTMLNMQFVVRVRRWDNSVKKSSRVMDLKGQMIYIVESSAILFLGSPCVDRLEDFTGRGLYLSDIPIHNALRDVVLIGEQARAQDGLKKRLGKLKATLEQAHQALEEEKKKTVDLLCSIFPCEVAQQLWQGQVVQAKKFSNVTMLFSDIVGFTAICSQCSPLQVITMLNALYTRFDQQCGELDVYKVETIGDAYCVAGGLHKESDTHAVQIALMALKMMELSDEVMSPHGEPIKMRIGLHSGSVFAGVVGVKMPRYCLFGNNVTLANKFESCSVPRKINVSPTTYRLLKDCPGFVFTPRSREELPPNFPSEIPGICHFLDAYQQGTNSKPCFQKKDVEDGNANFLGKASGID", "experiment": "Purified human sGC enzyme activity assay", "assay_type": "biochemical", "conditions": "for sGC Enzyme (fold increase at 30 μM) / sGC Enzyme (specific activity at 30 μM) / sGC Enzyme (fold increase at 30 μM without SNP): 30 μM compound; for sGC Enzyme (fold increase at 30 μM): without the addition of SNP; for sGC Enzyme (specific activity at 10 μM) / sGC Enzyme (fold increase at 10 μM without SNP): 10 μM compound", "outline": "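Values are fold-change of sGC specific activity, nmoles cGMP per mg enzyme per min, relative to DMSO controls. Reactions: 5 ng human enzyme, 300 μM GTP, 1 mM IBMX, 2 mM MgCl2/DTT, 0.1 M Tris pH 8.0, compound 10 or 30 μM final, 37° C for 30 minutes, methanol quench. cGMP read against a 0.078-10 μM final standard curve.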"}, "[2]": {"target": "T1, Human soluble guanylate cyclase enzyme (hsGC)", "experiment": "Purified human sGC enzyme synergy assay in the presence of 1 μM sodium nitroprusside (SNP)", "assay_type": "biochemical", "conditions": "for sGC Enzyme (fold increase at 30 μM with SNP): 30 μM compound; for sGC Enzyme (fold increase at 10 μM with SNP): 10 μM compound", "outline": "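Fold-change in cGMP-forming specific activity (nmol/mg/min) versus DMSO, with 1 μM SNP present throughout. Reactions held 30 min at 37 °C with 10 or 30 μM compound, 5 ng human sGC, 300 μM GTP, 1 mM IBMX and 2 mM MgCl2 at pH 8.0, then stopped with cold methanol.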"}, "[3]": {"test_system": "Thoracic aortic rings", "experiment": "Alternative thoracic aortic rings assay (Example 19b; resting tension as 100% inhibition)", "parameters": "species or system rat", "conditions": "Rattus norvegicus, Table 10A; for inhibition at 1 µM: read-out: Percent Relaxation at 1 μM; for inhibition at 3 µM: read-out: Percent Relaxation at 3 μM; for inhibition at 10 µM: read-out: Percent Relaxation at 10 μM; for EC50: read-out: Aortic Ring EC50", "outline": "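EC50 values come from cumulative concentration-response relaxation of phenylephrine (100 ng/mL)-contracted thoracic aortic rings from 275-299 g male Sprague-Dawley rats. Rings were equilibrated at 1.0 g tension in oxygenated Krebs-Henseleit at 37 °C, with compounds given in DMSO and tension measured isometrically.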"}, "[4]": {"target": "soluble guanylate cyclase (sGC) (Homo sapiens (Human), UniProt Q02108+Q02153)", "sequence (Q02153 whole entry)": "as the sequence (Q02153 whole entry) above", "sequence (Q02108 whole entry)": "as the sequence (Q02108 whole entry) above", "experiment": "sGC-HEK-cGMP assay run with SNP incubation (HEK WC assay)", "assay_type": "cell-based", "outline": "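EC50 values derive from concentration-response curves of intracellular cGMP in HEK293 cells, which express sGC endogenously. Compound and sodium nitroprusside were co-incubated 10 min at 37 °C after a 15-min 0.5 mM IBMX step, with 0.1 M HCl lysis and 1% DMSO vehicle.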"}, "[5]": {"conditions": "read-out: HEK WC Assay (% Emax at 10 μM/with 10 uM SNP)"}, "[6]": {"conditions": "read-out: HEK WC Assay (% Emax at 30 μM/with 10 uM SNP)"}, "[7]": {"conditions": "read-out: HEK WC Assay (% Emax at 10 uM/with 10 uM SNP)"}, "[8]": {"conditions": "read-out: HEK WC Assay (% Emax at 30 uM/with 10 uM SNP)"}}, "note": "Like-named read-outs stand apart in the source and are kept apart here.", "data": [{"smiles": "COC(=O)Nc1c(N)nc(-c2cc(-c3ccccc3)n(Cc3ccccc3F)n2)nc1N", "note": "[Compound I-83]", "values": [{"measurement": "sGC Enzyme (fold increase at 30 μM)", "setting": "[1]", "result": "D (D = 10 to <30 fold increase)"}, {"measurement": "sGC Enzyme (fold increase at 30 μM with SNP)", "setting": "[2]; with the addition of SNP", "result": "C (C = 5 to <10 fold increase)"}, {"measurement": "inhibition at 1 µM", "setting": "[3]", "result": "10 to 20", "unit": "%"}, {"measurement": "inhibition at 3 µM", "setting": "[3]", "result": "20 to 40", "unit": "%"}, {"measurement": "inhibition at 10 µM", "setting": "[3]", "result": "60 to 80", "unit": "%"}, {"measurement": "EC50", "setting": "[3]", "result": "4 to 8", "unit": "µM"}]}, {"smiles": "CC(C)(C)OC(=O)Nc1cnc(-c2cc(-c3ccon3)n(Cc3ccccc3F)n2)nc1N", "note": "[Compound I-106]", "values": [{"measurement": "sGC Enzyme (fold increase at 30 μM)", "setting": "[1]", "result": "D (D = 10 to <30 fold increase)"}, {"measurement": "sGC Enzyme (fold increase at 30 μM with SNP)", "setting": "[2]; with the addition of SNP", "result": "D (D = 10 to <30 fold increase)"}, {"measurement": "inhibition at 1 µM", "setting": "[3]", "result": "20 to 40", "unit": "%"}, {"measurement": "inhibition at 3 µM", "setting": "[3]", "result": "60 to 80", "unit": "%"}, {"measurement": "inhibition at 10 µM", "setting": "[3]", "result": "100 to 120", "unit": "%"}, {"measurement": "EC50", "setting": "[3]", "result": "< 2", "unit": "µM"}]}, {"smiles": "CC(=O)Nc1c(N)nc(-c2cc(-c3nccs3)n(Cc3ccccc3F)n2)nc1N", "note": "[Compound I-94]", "values": [{"measurement": "Emax at 10 µM", "setting": "[4]; [5]", "result": "0 to 10", "unit": "%"}, {"measurement": "Emax at 30 µM", "setting": "[4]; [6]", "result": "0 to 10", "unit": "%"}, {"measurement": "sGC Enzyme (fold increase at 30 μM)", "setting": "[1]", "result": "A (A = no increase to <2 fold increase)"}, {"measurement": "sGC Enzyme (fold increase at 30 μM with SNP)", "setting": "[2]; with the addition of SNP", "result": "B (B = 2 to <5 fold increase)"}]}, {"smiles": "Fc1ccccc1Cn1nc(-c2ccccn2)c(Cl)c1-c1ccccn1", "note": "[Compound I-63]", "values": [{"measurement": "Emax at 10 µM", "setting": "[4]; [7]", "result": "0 to 10", "unit": "%"}, {"measurement": "Emax at 30 µM", "setting": "[4]; [8]", "result": "0 to 10", "unit": "%"}, {"measurement": "sGC Enzyme (specific activity at 10 μM)", "setting": "[1]", "result": "B (B = 50 to <100)"}, {"measurement": "sGC Enzyme (fold increase at 10 μM without SNP)", "setting": "[1]", "result": "A (A = no increase to <2 fold increase)"}, {"measurement": "sGC Enzyme (specific activity at 30 μM)", "setting": "[1]", "result": "B (B = 50 to <100)"}, {"measurement": "sGC Enzyme (fold increase at 30 μM without SNP)", "setting": "[1]", "result": "A (A = no increase to <2 fold increase)"}, {"measurement": "sGC Enzyme (fold increase at 10 μM with SNP)", "setting": "[2]; with 1 μM SNP", "result": "A (A = no increase to <2 fold increase)"}, {"measurement": "sGC Enzyme (fold increase at 30 μM with SNP)", "setting": "[2]; with 1 μM SNP", "result": "A (A = no increase to <2 fold increase)"}]}, {"smiles": "Fc1ccccc1Cn1nc(-c2ccccn2)cc1-c1nnn[nH]1", "note": "[Compound I-43]", "values": [{"measurement": "Emax at 10 µM", "setting": "[4]; [7]", "result": "0 to 10", "unit": "%"}, {"measurement": "Emax at 30 µM", "setting": "[4]; [8]", "result": "0 to 10", "unit": "%"}, {"measurement": "sGC Enzyme (specific activity at 10 μM)", "setting": "[1]", "result": "C (C = 100 to <200)"}, {"measurement": "sGC Enzyme (fold increase at 10 μM without SNP)", "setting": "[1]", "result": "A (A = no increase to <2 fold increase)"}, {"measurement": "sGC Enzyme (specific activity at 30 μM)", "setting": "[1]", "result": "C (C = 100 to <200)"}, {"measurement": "sGC Enzyme (fold increase at 30 μM without SNP)", "setting": "[1]", "result": "A (A = no increase to <2 fold increase)"}, {"measurement": "sGC Enzyme (fold increase at 10 μM with SNP)", "setting": "[2]; with 1 μM SNP", "result": "A (A = no increase to <2 fold increase)"}, {"measurement": "sGC Enzyme (fold increase at 30 μM with SNP)", "setting": "[2]; with 1 μM SNP", "result": "A (A = no increase to <2 fold increase)"}]}, {"smiles": "COC(=O)Nc1c(N)nc(-c2cc(-c3nccs3)n(Cc3ccccc3F)n2)nc1N", "note": "[Compound I-93]", "values": [{"measurement": "Emax at 10 µM", "setting": "[4]; [5]", "result": "10 to 20", "unit": "%"}, {"measurement": "Emax at 30 µM", "setting": "[4]; [6]", "result": "20 to 40", "unit": "%"}, {"measurement": "sGC Enzyme (fold increase at 30 μM)", "setting": "[1]", "result": "B (B = 2 to <5 fold increase)"}, {"measurement": "sGC Enzyme (fold increase at 30 μM with SNP)", "setting": "[2]; with the addition of SNP", "result": "C (C = 5 to <10 fold increase)"}]}, {"smiles": "Nc1cc(N)nc(-c2cc(-c3ccon3)n(Cc3ccccc3F)n2)n1", "note": "[Compound I-103, 2-(1-(2-fluorobenzyl)-5-(isoxazol-3-yl)-1H-pyrazol-3-yl)pyrimidine-4,6-diamine]", "values": [{"measurement": "Emax at 10 µM", "setting": "[4]; [5]", "result": "20 to 40", "unit": "%"}, {"measurement": "Emax at 30 µM", "setting": "[4]; [6]", "result": "20 to 40", "unit": "%"}, {"measurement": "sGC Enzyme (fold increase at 30 μM)", "setting": "[1]", "result": "A (A = no increase to <2 fold increase)"}, {"measurement": "sGC Enzyme (fold increase at 30 μM with SNP)", "setting": "[2]; with the addition of SNP", "result": "B (B = 2 to <5 fold increase)"}]}, {"smiles": "Nc1nc(-c2cc(-c3ccon3)n(Cc3ccccc3F)n2)ncc1C(=O)O", "note": "[Compound I-132]", "values": [{"measurement": "Emax at 10 µM", "setting": "[4]; [5]", "result": "40 to 60", "unit": "%"}, {"measurement": "Emax at 30 µM", "setting": "[4]; [6]", "result": "20 to 40", "unit": "%"}, {"measurement": "sGC Enzyme (fold increase at 30 μM)", "setting": "[1]", "result": "B (B = 2 to <5 fold increase)"}, {"measurement": "sGC Enzyme (fold increase at 30 μM with SNP)", "setting": "[2]; with the addition of SNP", "result": "C (C = 5 to <10 fold increase)"}]}]}
